# Source: paper PMC9866588, “Novel 7-Chloro-4-aminoquinoline-benzimidazole Hybrids as Inhibitors of Cancer Cells Growth: Synthesis, Antiproliferative Activity, in Silico ADME Predictions, and Docking” (Molecules, 2023)
# Tests used:
# [1] = tested on: Hut78 (T-cell lymphoma) cells; assay: MTT antiproliferative assay, HuT78; assay type: cell-based, human
# Description: (§1) The growth inhibition activity was assessed according to the slightly modified procedure performed at the National Cancer Institute, Developmental Therapeutics Program.
# (§2) The examined compounds were dissolved in DMSO (1 × 10^−2 M). The experiments were carried out on seven human tumor cell lines and a normal cell line. The following cell lines were used: HeLa (human cervical adenocarcinoma; purchased from ATCC), CaCo-2 (human colorectal adenocarcinoma), MCF-7 (human breast adenocarcinoma), CCRF-CEM (human acute lymphoblastic leukemia), Hut78 (T-cell lymphoma), THP-1 (acute monocytic leukemia), Burkitt lymphoma (Raji), and MDCK1 (Madine–Darby canine kidney). The MDCK1 cells were used between 24 and 26 passages.
# (§3) The adherent cells were cultured in Dulbecco’s modified Eagle medium—DMEM (Gibco, Termo Fisher Scientific Inc., Leicestershire, England, UK), supplemented with 10% heat-inactivated fetal bovine serum (FBS, Gibco, Termo Fisher Scientific Inc., Leicestershire, England, UK), 2 mM glutamine, and 100U/0.1mg penicillin/streptomycin. The cells in suspension were cultured in RPMI 1640 (Gibco, Termo Fisher Scientific Inc., Leicestershire, England, UK) medium, supplemented with 10% FBS (Gibco, Termo Fisher Scientific Inc., Leicestershire, England, UK), 2 mM glutamine, 1 mM sodium pyruvate, and 10 mM HEPES. The cells were grown in a humidified atmosphere under the conditions of 37 °C/5% of CO2 gas in the CO2 incubator (IGO 150 CELLlife^TM, JOUAN, Thermo Fisher Scientific, Waltham, MA, USA).
# (§4) The adherent cells (HeLa, CaCo-2, MCF-7, and MDCK-1) were plated in 96-well flat bottom plates (Greiner, Frickenhausen, Austria) at a concentration of 2 × 10^4 cells/mL. The suspension cells (Raji, THP-1, CCRF-CEM and Hut78) were plated in 96-well microtiter plates (Sarstead, Newton, NC, USA) at a concentration of 1 × 10^5 cells/mL. Twenty-four hours later, the cells were treated with test agents in […] and incubated for a further 72 h. The working dilutions were freshly prepared on the day of testing. The solvent was also tested for eventual inhibitory activity by adjusting its concentration to be the same as in the working concentrations. After 72 h of incubation, the cell growth rate was evaluated by performing the MTT assay, which detects dehydrogenase activity in viable cells. For this purpose, upon completion of the incubation period, the growth medium was discarded and 50 μL of MTT was added to each well at a concentration of 5 mg/mL. After four hours of incubation at 37 °C, the water insoluble MTT-formazan crystals were dissolved in 150 μL of dimethyl-sulfoxide (DMSO) for the adherent cells and in 10% SDS with 0.01 mol/L HCl for the cells grown in suspension. The absorbance (OD, optical density) was measured on a microplate reader (iMark, BIO RAD, Hercules, CA, USA) at 595 nm.
# (§5) The percentage of live cells was calculated as follows: % = OD (sample) − OD (background)/OD (control) − OD (background) × 100.
# (§6) The optical density (OD) of the background for the adherent cells is the OD of the MTT solution and DMSO; the OD (background) for the suspension cells is the OD of the culture medium with MTT and 10% SDS with 0.01 mol/L HCl; the OD (control) is the OD of the cells grown without the tested compounds.
# (§7) The calculation of the GI50 value curves and QC analysis was performed using the Excel tools and GraphPadPrism software (La Jolla, CA, USA), v. 5.03. Briefly, individual concentration effect curves are generated by plotting the logarithm of the concentration of the tested compounds (X) vs. the corresponding percent inhibition values (Y) using the least squares fit. The best-fit GI50 values are calculated using log (inhibitor) versus normalized response—variable slope equation, where Y Ľ 100/(1 ţ 10 ((LogIC50 _ X) × HillSlope)). The QC criteria parameters (Z0, S:B, R2, HillSlope) were checked for every GI50 curve.
# HuT78 cells [2] = assay: Annexin V-FITC/PI apoptosis detection; assay type: cell-based, human; details: HuT78, 5 μM, 24 h
# Description: The proapoptotic potential of compounds 5d and 12d was tested on the HuT78 cells using the Annexin V-FITC Apoptosis Staining/Detection Kit (ab14085; abcam, UK). The cells were plated in 6-well plates at a concentration of 5 × 10^5 cells/well and treated for 24 h with 12d at a concentration of 5 μM. After the incubation period, the cells were collected and centrifuged at 1100 rpm for 6 min, stained according to the manufacturer‘s protocol, and analyzed by flow cytometry (BD FACSCalibur, Becton Dickinson, San Jose, CA, USA) using FlowJo software (FlowJo, LLC, Ashland, OR, USA).
# [3] = tested on: HeLa (human cervical adenocarcinoma) cells; assay: MTT antiproliferative assay, HeLa; assay type: cell-based; details: 72 h, mean ± SD of three independent experiments
# Description: as §1, §2, §3, §4, §5, §6, §7
# THP-1 cells = assay: Flow cytometry analysis of cell cycle, THP-1; assay type: cell-based, human; details: THP-1, 5 μM, 24 h
# Description: (§8) To analyze the effects of the selected compounds (5d, 8d, and 12d) on the cell cycle of the HuT78 and THP-1 cells, the cells were seeded in 6-well plates (5 × 10^5 cells per well) and treated for 24 h with the selected compounds 5d and 12d (5 μM). The cells were then collected and fixed in cold 70% ethanol. The fixed samples were stained with 15 µg/mL of propidium iodide (PI) at room temperature and analyzed by flow cytometry (FACS Canto II, BD Biosciences). The results were analyzed using FlowLogic software.
# (§9) One-way ANOVA analysis of variance was performed in the MedCalc statistical program for the analysis of the cell cycle. p-values of less than 0.05 were considered to be statistically significant.
# [4] = tested on: MCF-7 (human breast adenocarcinoma) cells; assay: MTT antiproliferative assay, MCF-7; assay type: cell-based; details: MCF7, 72 h, mean ± SD of three independent experiments
# Description: as §1, §2, §3, §4, §5, §6, §7
# [5] = tested on: Raji (Burkitt lymphoma) cells; assay: MTT antiproliferative assay, Raji; assay type: cell-based, human; details: Homo sapiens, Raji; 72 h, MTT, mean ± SD of three independent experiments
# Description: as §1, §2, §3, §4, §5, §6, §7
# [6] = tested on: CCRF-CEM (human acute lymphoblastic leukemia) cells; assay: MTT antiproliferative assay, CCRF-CEM; assay type: cell-based; details: Homo sapiens, CCRF-CEM; 72 h, MTT, mean ± SD of three independent experiments
# Description: as §1, §2, §3, §4, §5, §6, §7
# HuT78 cells [7] = assay: Flow cytometry analysis of cell cycle, HuT78; assay type: cell-based, human; details: HuT78, 5 μM, 24 h
# Description: as §8, §9
structure (smiles),measurement,setting,value
"Clc1ccc2c(Nc3cccc(-c4nc5ccccc5[nH]4)c3)ccnc2c1 [Compound 5d, N-(3-(1H-benzo[d]imidazol-2-yl)phenyl)-7-chloroquinolin-4-amine]",GI50,"[1]; Homo sapiens, HuT78, 72 h, MTT, mean ± SD of three independent experiments",0.4 ± 0.3 µM
same,tumor selectivity index (SI) HuT78,[1]; with respect to MDCK1 cells,51
same,cells alive,HuT78 cells [2],about 64%
same,cells in early apoptosis,HuT78 cells [2],24.75%
same,cells in late stage of apoptosis/necrosis,HuT78 cells [2],8.3%
same,GI50,[3],0.7 ± 0.1 µM
same,proportion of polyploid giant cancer cells,THP-1 cells,increased proportion
same,decrease in G0/G1 phase,THP-1 cells; vs control,4.5 times
same,increase in G2/M phase,THP-1 cells; vs control,62.8%
same,increase of cells in subG0/G1 phase,THP-1 cells; vs control,2.9 times
same,GI50,[4],33.6 ± 8.3 µM
same,GI50,[5],4.3 ± 1.2 µM
same,GI50,[6],8.2 ± 6.2 µM
same,proportion of polyploid giant cancer cells,HuT78 cells [7],increased proportion
same,decrease in G0/G1 phase,HuT78 cells [7]; vs control,5 times
same,increase in G2/M phase,HuT78 cells [7]; vs control,2 times
same,increase of cells in subG0/G1 phase,HuT78 cells [7]; vs control,13 times
